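96-well plates; 48 h exposure; 5 concentrations. Endpoints by linear interpolation between flanking doses. Not reached: highest tested concentration assigned. At the GI50, growth is halved. TGI is the concentration that stops growth completely.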
Key:
Assay in all cases: inhibition of tumour cell growth, NCI panel, 48 h
A498 renal = tested on: A498 renal
HOP-92 NSCLC = tested on: HOP-92 NSCLC
HT29 colon = tested on: HT29 colon
NCI-H522 lung = tested on: NCI-H522 lung
OVCAR-8 ovarian = tested on: OVCAR-8 ovarian
RXF 393 renal = tested on: RXF 393 renal
SF-268 CNS = tested on: SF-268 CNS
SK-MEL-5 melanoma = tested on: SK-MEL-5 melanoma
SNB-75 CNS = tested on: SNB-75 CNS
LOX IMVI melanoma = tested on: LOX IMVI melanoma

Row | Structure (SMILES) | TGI (A498 renal) | TGI (HOP-92 NSCLC) | TGI (HT29 colon) | TGI (NCI-H522 lung) | TGI (OVCAR-8 ovarian) | TGI (RXF 393 renal) | TGI (SF-268 CNS) | TGI (SK-MEL-5 melanoma) | TGI (SNB-75 CNS) | GI50 (A498 renal) | GI50 (NCI-H522 lung) | GI50 (OVCAR-8 ovarian) | GI50 (RXF 393 renal) | GI50 (SF-268 CNS) | GI50 (SK-MEL-5 melanoma) | GI50 (SNB-75 CNS) | TGI (LOX IMVI melanoma) | GI50 (HOP-92 NSCLC) | GI50 (HT29 colon) | GI50 (LOX IMVI melanoma)
1 | O=C1CCC2CCOc3ccc(O)c1c32 (stereo not drawn) | > 100 µM | > 100 µM | > 100 µM | > 100 µM | > 100 µM | > 100 µM | > 100 µM | > 100 µM | > 100 µM |  |  |  |  |  |  |  |  |  |  | 
2 | CN1c2ccccc2C(C)(C)C12CC(c1ccc(Cl)c(S(=O)(=O)N3CCCC3)c1)=NO2 (stereo not drawn) | > 100 µM |  |  | > 100 µM | > 100 µM | > 100 µM | > 100 µM | > 100 µM | > 100 µM | > 100 µM | > 100 µM | > 100 µM | > 100 µM | > 100 µM | 0.456 µM | > 100 µM |  |  |  | 
3 | N#Cc1nc(Nc2ccc([N+](=O)[O-])cc2)sc1N | > 100 µM | 75 µM | > 100 µM | 32.1 µM | > 100 µM |  | > 100 µM | 12.7 µM | > 100 µM |  |  |  |  |  |  |  | 28.6 µM |  |  | 
4 | C=CCNc1cccc2c1C(=O)c1ccccc1C2(O)CC=C (stereo not drawn) | 47.8 µM | 55.4 µM | 36.7 µM | 51.6 µM | 47.1 µM |  | > 100 µM | 30.2 µM | 45.7 µM | 21.8 µM | 18.4 µM | 19.5 µM |  | 62.7 µM | 16 µM | 17 µM | 35.9 µM | 27.4 µM | 16.8 µM | 18.6 µM
5 | O=C1CCC(=O)C12CCc1cccc(O)c12 |  | > 100 µM | > 100 µM |  | > 100 µM | > 100 µM | > 100 µM |  | > 100 µM |  |  |  |  |  |  |  | > 100 µM |  |  | 
6 | O=C1CC(c2c[nH]c3ccccc23)C(=O)N1c1ccccc1 (stereo not drawn) | > 100 µM |  | > 100 µM |  | > 100 µM | > 100 µM |  | > 100 µM | > 100 µM |  |  |  |  |  |  |  |  |  |  | 
7 | O=C(O/N=C1/CCCC/C1=C\c1ccccc1)c1ccc(Cl)cc1 |  | > 100 µM | > 100 µM | > 100 µM | > 100 µM | > 100 µM | > 100 µM | > 100 µM | > 100 µM |  |  |  |  |  |  |  | > 100 µM |  |  | 
8 | CC(=O)OC1=C2C(CC3C4CC=C5CC(OC(C)=O)CCC5(C)C4CCC23C)C2C(=O)N(Cc3ccccc3)C(=O)C2C1 (stereo not drawn) | 43.6 µM |  | 24 µM | 58.7 µM | > 100 µM | 45.3 µM | > 100 µM | 4.79 µM | 86.5 µM | 10.9 µM | 7.29 µM | 6.9 µM | 4.34 µM | 19.8 µM | 2.1 µM | 5.54 µM |  |  | 3.9 µM | 
9 | Cc1nc2ccc(NCCN(C)C)c3c(=O)c4cc(O)ccc4n1c23 | 4.93 µM | 6.96 µM | 2.4 µM | 1.98 µM | 2.37 µM |  | 5.43 µM | 10.5 µM | 5.63 µM |  |  |  |  |  |  |  | 2.62 µM |  |  | 
10 | O=[N+]([O-])c1ccc2c(c1)S(=O)c1ccccc1-2 (stereo not drawn) | > 100 µM | > 100 µM | > 100 µM | > 100 µM | > 100 µM |  | > 100 µM | > 100 µM | > 100 µM |  |  |  |  |  |  |  | > 100 µM |  |  | 
11 | COc1cc(/C=C2\CCc3ccccc3C2=O)cc(OC)c1OC |  | 24.5 µM | 32.5 µM | 28.2 µM | 29.8 µM | 29 µM | 30.3 µM | 25.3 µM | 53.6 µM |  |  |  |  |  |  |  | 24.4 µM |  |  | 
12 | CCC(C)CC(CC)NCCN1CCN(C(CC)CC(C)CC)C1=S (stereo not drawn) |  | 2.96 µM | 3.1 µM | 3.24 µM | 3.05 µM | 2.82 µM | 4.11 µM | 2.95 µM | 2.82 µM |  | 1.74 µM | 1.66 µM | 1.5 µM | 1.92 µM | 1.61 µM | 1.49 µM | 2.91 µM | 1.05 µM | 1.67 µM | 1.57 µM
13 | COC(=O)C(=O)C(C#N)c1ccc(Cl)c(Cl)c1 (stereo not drawn) |  | > 100 µM | > 100 µM | > 100 µM |  |  | > 100 µM | > 100 µM | > 100 µM |  |  |  |  |  |  |  | > 100 µM |  |  | 
14 | CC(C)(C)c1nnc2n(c1=O)N=CC(c1ccc(Br)cc1)S2 (stereo not drawn) |  | > 100 µM | > 100 µM | 41.7 µM | > 100 µM | 82.5 µM | > 100 µM | 38.3 µM | 96.6 µM |  | 19.2 µM | 34.7 µM | 23.6 µM | 42.7 µM | 18.6 µM | 21.5 µM | 46.8 µM | 40.9 µM | 43.8 µM | 22.5 µM
